Series [1] has as its system VEGFA expression in human cancer cell line HT1080. As to the kind of experiment: Hypoxia-induced VEGFA expression in HT1080. The class given is cell-based. The settings on record: HT1080, 1% O2; FIG. 7. As to the method:
(§1) Human sarcoma cell line HT1080 was provided by Y. Matsumoto (Kyushu University). For hypoxic induction, HT1080 (3×10^5 cells) was cultured in 1% O2 for 12 hours before assays.
(§2) Total RNA was isolated using ISOGEN (Nippon Gene Co., Ltd.). For amplification by PCR, RNA samples treated with RNase-free DNase I (Thermo Fisher Scientific) were reverse-transcribed with oligo(dT) primers (TFS) and SuperScript III reverse transcriptase (TFS). Real-time PCR was performed in a CFX Connect™ thermal cycler (BIO-RAD) using SYBR Green PCR Master Mix (Thermo Fisher Scientific). The expression of mouse and human target genes was normalized to expression of Hprt and PPIB genes, respectively. CFX Manager software (ver.3.1) supplied with the instrument was used for analysis.
(§3) (1) Although EPAS1 is known to control hypoxic responses through complex formation with aryl hydrocarbon receptor nuclear translocator (ARNT) (NPL 6), EPAS1-mediated Il31 promoter activation is independent of ARNT (NPL 4). FM19G11 is not a direct inhibitor of EPAS1, but is known to suppress the expression of the EPAS1 gene (Epas1) by acting on an unidentified target (NPL 7). Treatment of human cancer cell line HT1080 with […] suppressed VEGFA expression and GLUT1 expression induced by hypoxia (FIG. 7).

For series [2], the system named is GLUT1 expression in human cancer cell line HT1080. Put plainly: Hypoxia-induced GLUT1 expression in HT1080. The format is cell-based. The settings on record: HT1080, 1% O2; FIG. 7. The procedure:
as §1, §2, §3

A further series has as its system mouse IL-31 gene. Put plainly: IL-31 production inhibitory action: IL-31 gene expression by real-time PCR in antigen-stimulated CD4+ T cells from Dock8−/− AND Tg mice. The class given is cell-based. In general terms: Quantitative PCR measures a nucleic acid by following its amplification.
In a further series the test system is CD4+ T cells. Put plainly: T cell proliferation assay (PMA and ionomycin, 3H-thymidine incorporation). The class given is cell-based, mouse. As to the method: A T cell proliferation assay was performed by culturing CD4^+ T cells (5×10^4 cells) with T cell-depleted irradiated spleen cells (1×10^6 cells) in the presence of phorbol 12-myristate 13-acetate (PMA: 100 ng/ml; Sigma-Aldrich) and ionomycin (1 μg/ml; Sigma-Aldrich) for 66 hours. For the last 18 hours of culture, ^3H-thymidine (0.037 MBq) was added, and the incorporated radioactivity was measured with MicroBeta^2 (PerkinElmer, Inc., Waltham, MS).
A T cell proliferation assay was performed by culturing CD4^+ T cells (5×10^4 cells) with T cell-depleted irradiated spleen cells (1×10^6 cells) in the presence of phorbol 12-myristate 13-acetate (PMA: 100 ng/ml; Sigma-Aldrich) and ionomycin (1 μg/ml; Sigma-Aldrich) for 66 hours. Test compounds were added at various final concentrations at the start of culture. For the last 18 hours of culture, ^3H-thymidine (0.037 MBq) was added, and the incorporated radioactivity was measured with MicroBeta^2 (PerkinElmer, Inc., Waltham, MS). […]
On the technique in general: Dividing cells build labelled thymidine or BrdU into new DNA.

A further series relates to IL-2 gene (Il2). As to the kind of experiment: IL-2 gene expression in CD4+ T cells from Dock8−/− AND Tg mice (real-time PCR). Conditions: 2.5 μM; FIG. 2B. The class given is cell-based, mouse. The procedure: as §2
(§4) CD4^+ T cells (3×10^5 cells) from Dock8^−/− AND Tg mice were cultured with T cell-depleted irradiated spleen cells (5×10^6 cells) containing a test compound (2.5 μM) or a vehicle alone (0.1% DMSO), in the presence of MCC88-103 (3 μg/ml) for 24 hours.

The subject of the next series is IL-4 gene (Il4). Put plainly: IL-4 gene expression in CD4+ T cells from Dock8−/− AND Tg mice (real-time PCR). The format is cell-based, mouse. Conditions: 2.5 μM; FIG. 2B. As to the method:
as §2, §4

The mark [3] stands for this setting: Mus musculus, CD4+ T, 24 h, read-out: qPCR results (IL-31 production (%)): based on the case using 0.1% DMSO taken as 100%.
The mark [4] stands for this setting: Mus musculus, CD4+ T, 66 h, read-out: Cell proliferation (%): based on the case using 0.2% DMSO taken as 100%.

The results in this text go back to US20240139214A1, “AGENT FOR SUPPRESSING IL-31 PRODUCTION AND PHARMACEUTICAL COMPOSITION CONTAINING THE SAME” (KYUSHU UNIVERSITY, NATIONAL UNIVERSITY CORPORATION, priority 2021, published 2024).

Structures are written as SMILES.

With `Cc1ccc(C(=O)COC(=O)c2cccc(NC(=O)c3ccc([N+](=O)[O-])cc3[N+](=O)[O-])c2)cc1` [FM419G11, reference compound], the “VEGFA expression induced by hypoxia” value in series [1] is listed as “suppressed”. The “GLUT1 expression induced by hypoxia” value in series [2] is recorded as “suppressed”.

With `CN(C)CCOc1ccc(/C=N/Nc2ccc(C(=O)O)cc2)cc1` [Negative control compound 1, 4-(2-(4-(2-(Dimethylamino)ethoxy)benzylidene)hydrazineyl)benzoic Acid, reference compound], the “antigen-induced IL-31 gene expression (in words)” value in the series on mouse IL-31 gene (2.5 μM, FIG. 2A) is given as “not inhibited”. For the same compound, the “IL-31 production inhibitory action (in words, discussion of Table 1)” value in the series with mouse IL-31 gene (relative to compound 1) is reported as “tended to notably decrease”. Also, the “effect on non-specific T cell proliferation induced by PMA and ionomycin” value in the series on CD4+ T cells (FIG. 4) is “neither of these compounds had an adverse effect”. Moreover, the “effect on expression of IL-2 gene” value with IL-2 gene (Il2) was “neither of these compounds had an effect”. In addition, the “effect on expression of IL-4 gene” value with IL-4 gene (Il4) is “neither of these compounds had an effect”.

In the case of `CC(C)c1ccc(C(=O)Nc2nnc(-c3ccc(C(=O)O)cc3)s2)cc1` [Compound 34, 4-(5-(4-Isopropylbenzamido)-1,3,4-thiadiazol-2-yl)benzoic Acid], in the series with mouse IL-31 gene (setting [3]), the activity at 0.625 µM stood at 48.3% and the activity at 1.25 µM stood at 52.3%. Besides, in the series on CD4+ T cells (setting [4]), the activity at 10 µM was determined as 79%, the activity at 20 µM is 90.8% and the activity at 40 µM came out at 87.8%.

In the case of `O=C(O)c1ccc(-c2nc(-c3cc(C(F)(F)F)ccc3Cl)n[nH]2)cc1` [Compound 25, 4-(3-(2-Chloro-5-(trifluoromethyl)phenyl)-1H-1,2,4-triazol-5-yl)benzoic Acid], in the series with mouse IL-31 gene (setting [3]), the activity at 0.312 µM stood at 82.7%, the activity at 0.625 µM was determined as 85.6% and the activity at 1.25 µM worked out at 72.2%. Moreover, in the series with mouse IL-31 gene (Mus musculus, CD4+ T, 24 h, 2.5 μM, read-out: qPCR results (IL-31 production (%)): based on the case using 0.1% DMSO taken as 100%), the activity at 2.5 µM came out at 81.9%. In the series with CD4+ T cells (setting [4]), the activity at 10 µM is 82.9%, the activity at 20 µM is 81.3% and the activity at 40 µM came out at 80.5%.

On to `CC(C)c1ccc(-c2cnc(-c3ccc(C(=O)O)cc3)[nH]2)cc1` [Compound 26, 4-(5-(4-Isopropylphenyl)-1H-imidazol-2-yl)benzoic Acid], for which, in the series on mouse IL-31 gene (setting [3]), the activity at 0.625 µM was found to be 45.1% and the activity at 1.25 µM stood at 26.2%. In the series with CD4+ T cells (setting [4]), the activity at 10 µM amounted to 77.1%, the activity at 20 µM turned out to be 70.6% and the activity at 40 µM is 64.6%.

Consider `O=C(O)c1ccc(-c2cn(-c3cc(C(F)(F)F)ccc3Cl)nn2)cc1` [Compound 23, 4-(1-(2-Chloro-5-(trifluoromethyl)phenyl)-1H-1,2,3-triazol-4-yl)benzoic Acid], for which, in the series with mouse IL-31 gene (Mus musculus, CD4+ T, 24 h, 0.156 μM, read-out: qPCR results (IL-31 production (%)): based on the case using 0.1% DMSO taken as 100%), the activity at 0.156 µM was 32.5%. In the series with mouse IL-31 gene (setting [3]), the activity at 0.312 µM came out at 46.4%, the activity at 0.625 µM is 31.4% and the activity at 1.25 µM is 22.7%. Moreover, the activity at 5 µM in the series with CD4+ T cells (Mus musculus, CD4+ T, 66 h, 5 μM, read-out: Cell proliferation (%): based on the case using 0.2% DMSO taken as 100%) worked out at 110%. In addition, in the series with CD4+ T cells (setting [4]), the activity at 10 µM was determined as 92.9%, the activity at 20 µM is 88.5% and the activity at 40 µM worked out at 68.9%.
